Source: patent US11512057B2, “Unsaturated hydrocarbon pyrimidine thioether compounds and preparation method and application thereof” (Zhejiang University of Technology, priority 2018, dated 2022)

Tests used:
Type in all cases: in vivo
[1] = system: powdery mildew of cucumber; assay: Prevention experiment of powdery mildew of cucumber, living pot assay; details: 200 ppm; cucumber seedlings, about 10 days
Protocol: The living pot assay method was adopted, that is, the sample of the test compound was dissolved with a small amount of DMF solvent (the kind of solvent such as acetone, methanol, DMF, etc., is selected according to the solvency of the sample, and the volume ratio of the solvent amount to the spray amount is equal to or less than 0.05), diluted with water containing 0.1% Tween 80, and formulated into the test solution with a desired concentration. Cucumber seedlings at leaf period with the same growth period was sprayed evenly with the prepared agent, and aired. Each concentration was one treatment, each treatment was repeated 3 times, a control agent and a water of blank control were set separately. The fresh powdery mildew spores on the leaves of cucumbers were washed and filtered with double gauze to prepare a suspension with a concentration of about 100,000 spores/mL. The samples were inoculated by spraying, the inoculated samples were moved into artificial climate, and relative humidity was maintained at 60-70%, the temperature was maintained at 23° C., after about 10 days, grading investigation was carried out according to the morbidity of the blank control, control effect was calculated according to disease index.

armyworm = assay: Activity test of armyworm, leaf-dipping method; details: after 3 days
Protocol: A certain amount of the original drug was weighed by an analytical balance (0.0001 g), and dissolved in DMF containing 1% Tween-80 emulsifier to prepare a 1% mother liquor, which was then diluted with distilled water for later use.
The insecticidal efficacy was evaluated by a leaf-dipping method with the armyworm as a target and a spray method with Tetranychus cinnabarinus and Aphis craccivora Koch as a target.
Leaf-dipping method: the target for the test was the armyworm, and corn leaves in an appropriate amount were fully infiltrated in the prepared liquid, then dried naturally, placed in culture dishes with filter papers, inoculated with 3rd instar larvae of the armyworm at 10 heads/dish, and placed in an observation room and cultured at 24˜27° C. the results were investigated after 3 days. A brush was used to touch the insect bodies, and the unresponsive were regarded as dead insects.

[2] = system: adults of Tetranychus cinnabarinus; assay: Acaricidal comparison, spray method on adults of Tetranychus cinnabarinus
Protocol: Spray method: the test target was Tetranychus cinnabarinus, that is, broad bean leaves inoculated with adults of Tetranychus cinnabarinus were placed under the spray treatment of Potter spray towers. After treatment, the Tetranychus cinnabarinus was placed in an observation room and cultured at 25˜27° C., and the results were investigated after 48 hours. The brush was used to touch the insect body, and the unresponsive were regarded as dead insects. The test concentrations of the compounds on killing cinnabarin were 50, 25, 12.5, 6.25, 3.125 mg/L.

[3] = system: eggs of Tetranychus cinnabarinus; assay: Acaricidal comparison, egg test
Protocol: Egg test: each treated broad bean leave was inoculated with 10 adults of Tetranychus cinnabarinus, and the adults were removed after the eggs were laid for 24 hours. The leaves with eggs were sprayed under Potter spray towers. After treatment, the eggs of Tetranychus cinnabarinus were placed in an observation room and cultured at 25˜27° C. And the test was examined until the eggs under the blank treatment completely hatched out. The concentration of the compound that kills the eggs of Tetranychus cinnabarinus was 100, 50, 25, 12.5, 6.25 mg/L.

[4] = system: nymphs of Tetranychus cinnabarinus; assay: Acaricidal comparison, nymph test
Protocol: Nymph test: broad bean leaves were inoculated with 10 adult mites, and the adults were removed after laying eggs for 24 hours. The eggs were fed in insect rearing room, and when they hatched into nymphs, they were sprayed with a sprayer. After treatment, the leaves with the nymphs were placed in an observation room and cultured at 25-27° C., and the results were investigated after 48 hours. A brush was used to touch the insect bodies, and the unresponsive were regarded as the dead. The test concentrations of the compound on killing cinnabarin were 5, 2.5, 1.25, 0.625, 0.3125 mg/L.

C=CCSc1nc(C)cc(OCc2ccccc2/C(=C\OC)C(=O)OC)n1 [Compound 1]
effect of preventing powdery mildew [1]: 100%

C=CCSc1nc(OCc2ccccc2/C(=C\OC)C(=O)OC)c(Cl)c(C(F)F)n1 [Compound 9]
lethal rate on armyworm larvae (armyworm; 500 mg/L, 3rd instar larvae): 100%
effect of preventing powdery mildew [1]: 100%

C=C(Cl)CSc1nc(OCc2ccccc2/C(=C\OC)C(=O)OC)cc(C(F)F)n1 [Compound 34]
lethal rate on armyworm larvae (armyworm; 500 mg/L, 3rd instar larvae): 100%
effect of preventing powdery mildew [1]: 100%

C=C(Cl)CSc1nc(OCc2ccccc2/C(=C\OC)C(=O)OC)cc(C(F)(F)F)n1 [Compound 35]
lethal rate on armyworm larvae (armyworm; 500 mg/L, 3rd instar larvae): 100%
effect of preventing powdery mildew [1]: 100%

C=C(Cl)CSc1nc(CC)cc(OCc2ccccc2/C(=C\OC)C(=O)OC)n1 [Compound 36]
lethal rate on armyworm larvae (armyworm; 500 mg/L, 3rd instar larvae): 100%
effect of preventing powdery mildew [1]: 100%

CO/C=C(/C(=O)OC)c1ccccc1COc1cc(C)nc(SC/C=C/Cl)n1 [Compound 49]
effect of preventing powdery mildew [1]: 100%

CO/C=C(/C(=O)OC)c1ccccc1COc1cc(C(F)F)nc(SC/C=C/Cl)n1 [Compound 50]
effect of preventing powdery mildew [1]: 100%

CO/C=C(/C(=O)OC)c1ccccc1COc1cc(C(F)(F)F)nc(SC/C=C/Cl)n1 [Compound 51]
lethal rate on armyworm larvae (armyworm; 500 mg/L, 3rd instar larvae): 100%
effect of preventing powdery mildew [1]: 100%

CO/C=C(/C(=O)OC)c1ccccc1COc1cc(C2CC2)nc(SC/C=C/Cl)n1 [Compound 55]
effect of preventing powdery mildew [1]: 100%

CO/C=C(/C(=O)OC)c1ccccc1COc1cc(C(F)(F)F)nc(SCC=C(Cl)Cl)n1 [Compound 67]
lethal rate on armyworm larvae (armyworm; 500 mg/L, 3rd instar larvae): 100%
effect of preventing powdery mildew [1]: 100%
lethal rate against adult mites compared with fluacrypyrim ([2]; 50, 25, and 12.5 mg/L): better than that of fluacrypyrim
lethal rate on eggs of Tetranychus cinnabarinus compared with fluacrypyrim ([3]; 100, 50, 25, 12.5, 6.25 mg/L): better than that of fluacrypyrim
lethal rate on nymphs of Tetranychus cinnabarinus compared with fluacrypyrim ([4]; 5, 2.5, 1.25, 0.625, 0.3125 mg/L): better than that of fluacrypyrim

CCc1cc(OCc2ccccc2/C(=C\OC)C(=O)OC)nc(SCC=C(Cl)Cl)n1 [Compound 68]
lethal rate on armyworm larvae (armyworm; 100 mg/L): more than 80%

CO/C=C(/C(=O)OC)c1ccccc1COc1cc(C)nc(SCCC=C(F)F)n1 [Compound 113]
lethal rate on armyworm larvae (armyworm; 500 mg/L, 3rd instar larvae): 100%
effect of preventing powdery mildew [1]: 100%

CO/C=C(/C(=O)OC)c1ccccc1COc1cc(C(F)F)nc(SCCC=C(F)F)n1 [Compound 114]
effect of preventing powdery mildew [1]: 100%

CCc1cc(OCc2ccccc2/C(=C\OC)C(=O)OC)nc(SCCC=C(F)F)n1 [Compound 116]
lethal rate on armyworm larvae (armyworm; 500 mg/L, 3rd instar larvae): 100%

CCCc1cc(OCc2ccccc2/C(=C\OC)C(=O)OC)nc(SCCC=C(F)F)n1 [Compound 117]
lethal rate on armyworm larvae (armyworm; 500 mg/L, 3rd instar larvae): 100%

CO/C=C(/C(=O)OC)c1ccccc1COc1cc(C(C)C)nc(SCCC=C(F)F)n1 [Compound 118]
lethal rate on armyworm larvae (armyworm; 500 mg/L, 3rd instar larvae): 100%

CO/C=C(/C(=O)OC)c1ccccc1COc1cc(C2CC2)nc(SCCC=C(F)F)n1 [Compound 119]
lethal rate on armyworm larvae (armyworm; 500 mg/L, 3rd instar larvae): 100%

CO/C=C(/C(=O)OC)c1ccccc1COc1nc(SCCC=C(F)F)nc(C)c1C [Compound 127]
effect of preventing powdery mildew [1]: 100%

CCCCc1c(C)nc(SCCC=C(F)F)nc1OCc1ccccc1/C(=C\OC)C(=O)OC [Compound 128]
lethal rate on armyworm larvae (armyworm; 500 mg/L, 3rd instar larvae): 100%

C=CCSc1nc(C)cc(OCc2ccccc2/C(=N\OC)C(=O)OC)n1 [Compound 145]
lethal rate on armyworm larvae (armyworm; 500 mg/L, 3rd instar larvae): 100%

C=CCSc1nc(OCc2ccccc2/C(=N\OC)C(=O)OC)cc(C(F)F)n1 [Compound 146]
effect of preventing powdery mildew [1]: 100%

C=CCSc1nc(OCc2ccccc2/C(=N\OC)C(=O)OC)cc(C(F)(F)F)n1 [Compound 147]
lethal rate on armyworm larvae (armyworm; 500 mg/L, 3rd instar larvae): 100%

C=C(Cl)CSc1nc(C)cc(OCc2ccccc2/C(=N\OC)C(=O)OC)n1 [Compound 177]
effect of preventing powdery mildew [1]: 100%

C=C(Cl)CSc1nc(OCc2ccccc2/C(=N\OC)C(=O)OC)cc(C(F)(F)F)n1 [Compound 179]
lethal rate on armyworm larvae (armyworm; 500 mg/L, 3rd instar larvae): 100%
effect of preventing powdery mildew [1]: 100%

C=C(Cl)CSc1nc(CC)cc(OCc2ccccc2/C(=N\OC)C(=O)OC)n1 [Compound 180]
lethal rate on armyworm larvae (armyworm; 500 mg/L, 3rd instar larvae): 100%
effect of preventing powdery mildew [1]: 100%

C=C(Cl)CSc1nc(C)c(C)c(OCc2ccccc2/C(=N\OC)C(=O)OC)n1 [Compound 191]
effect of preventing powdery mildew [1]: 100%

CO/N=C(/C(=O)OC)c1ccccc1COc1cc(C)nc(SC/C=C/Cl)n1 [Compound 193]
lethal rate on armyworm larvae (armyworm; 500 mg/L, 3rd instar larvae): 100%
effect of preventing powdery mildew [1]: 100%

CO/N=C(/C(=O)OC)c1ccccc1COc1cc(C(F)F)nc(SC/C=C/Cl)n1 [Compound 194]
lethal rate on armyworm larvae (armyworm; 500 mg/L, 3rd instar larvae): 100%
effect of preventing powdery mildew [1]: 100%

CO/N=C(/C(=O)OC)c1ccccc1COc1cc(C2CC2)nc(SC/C=C/Cl)n1 [Compound 199]
lethal rate on armyworm larvae (armyworm; 500 mg/L, 3rd instar larvae): 100%
effect of preventing powdery mildew [1]: 100%

CO/N=C(/C(=O)OC)c1ccccc1COc1cc(C(F)(F)F)nc(SCC=C(Cl)Cl)n1 [Compound 211]
lethal rate on armyworm larvae (armyworm; 500 mg/L, 3rd instar larvae): 100%

CCCc1cc(OCc2ccccc2/C(=N\OC)C(=O)OC)nc(SCC=C(Cl)Cl)n1 [Compound 213]
lethal rate on armyworm larvae (armyworm; 500 mg/L, 3rd instar larvae): 100%

CO/N=C(/C(=O)OC)c1ccccc1COc1cc(C(C)C)nc(SCC=C(Cl)Cl)n1 [Compound 214]
lethal rate on armyworm larvae (armyworm; 500 mg/L, 3rd instar larvae): 100%

CO/N=C(/C(=O)OC)c1ccccc1COc1cc(C2CC2)nc(SCC=C(Cl)Cl)n1 [Compound 215]
lethal rate on armyworm larvae (armyworm; 500 mg/L, 3rd instar larvae): 100%

CCc1cc(OCc2ccccc2/C(=N\OC)C(=O)OC)nc(SCCC=C(F)F)n1 [Compound 260]
lethal rate on armyworm larvae (armyworm; 500 mg/L, 3rd instar larvae): 100%

CCCc1cc(OCc2ccccc2/C(=N\OC)C(=O)OC)nc(SCCC=C(F)F)n1 [Compound 261]
lethal rate on armyworm larvae (armyworm; 500 mg/L, 3rd instar larvae): 100%

CO/N=C(/C(=O)OC)c1ccccc1COc1nc(SCCC=C(F)F)nc(C)c1C [Compound 271]
lethal rate on armyworm larvae (armyworm; 500 mg/L, 3rd instar larvae): 100%
effect of preventing powdery mildew [1]: 100%

COC(=O)N(OC)c1ccccc1COc1cc(C)nc(SC/C=C/Cl)n1 [Compound 337]
lethal rate on armyworm larvae (armyworm; 500 mg/L, 3rd instar larvae): 100%

COC(=O)N(OC)c1ccccc1COc1cc(C(F)F)nc(SC/C=C/Cl)n1 [Compound 338]
lethal rate on armyworm larvae (armyworm; 500 mg/L, 3rd instar larvae): 100%

COC(=O)N(OC)c1ccccc1COc1cc(C)nc(SCC=C(Cl)Cl)n1 [Compound 353]
lethal rate on armyworm larvae (armyworm; 500 mg/L, 3rd instar larvae): 100%

COC(=O)N(OC)c1ccccc1COc1cc(C(F)F)nc(SCC=C(Cl)Cl)n1 [Compound 354]
lethal rate on armyworm larvae (armyworm; 500 mg/L, 3rd instar larvae): 100%

CCc1cc(OCc2ccccc2N(OC)C(=O)OC)nc(SCC=C(Cl)Cl)n1 [Compound 356]
lethal rate on armyworm larvae (armyworm; 500 mg/L, 3rd instar larvae): 100%

CCCc1cc(OCc2ccccc2N(OC)C(=O)OC)nc(SCC=C(Cl)Cl)n1 [Compound 357]
lethal rate on armyworm larvae (armyworm; 500 mg/L, 3rd instar larvae): 100%

COC(=O)N(OC)c1ccccc1COc1cc(C2CC2)nc(SCC=C(Cl)Cl)n1 [Compound 359]
lethal rate on armyworm larvae (armyworm; 500 mg/L, 3rd instar larvae): 100%

CCCc1cc(OCc2ccccc2N(OC)C(=O)OC)nc(SCCC=C(F)F)n1 [Compound 405]
lethal rate on armyworm larvae (armyworm; 500 mg/L, 3rd instar larvae): 100%

COC(=O)N(OC)c1ccccc1COc1cc(C(C)C)nc(SCCC=C(F)F)n1 [Compound 406]
lethal rate on armyworm larvae (armyworm; 500 mg/L, 3rd instar larvae): 100%

CCc1cc(OCc2ccccc2C(=NOC)C(=O)NC)nc(SCCC=C(F)F)n1 [Compound 549]
lethal rate on armyworm larvae (armyworm; 500 mg/L, 3rd instar larvae): 100%

CO/C=C(/C(=O)OC)c1ccccc1COc1cc(C(F)(F)F)nc(OC(C)C)n1 [Fluacrypyrim, fluacrypyrim]
mortality at 3.125 µg/mL ([2]; Tetranychus cinnabarinus, 48 h): 39.5%
mortality at 6.25 µg/mL ([2]; Tetranychus cinnabarinus, 48 h): 64.6%
mortality at 12.5 µg/mL ([2]; Tetranychus cinnabarinus, 48 h): 70.6%
mortality at 25 µg/mL ([2]; Tetranychus cinnabarinus, 48 h): 75.9%
mortality at 50 µg/mL ([2]; Tetranychus cinnabarinus, 48 h): 88.9%
mortality at 6.25 µg/mL ([3]; Tetranychus cinnabarinus): 10.8%
mortality at 12.5 µg/mL ([3]; Tetranychus cinnabarinus): 13.6%
mortality at 25 µg/mL ([3]; Tetranychus cinnabarinus): 32.2%
mortality at 50 µg/mL ([3]; Tetranychus cinnabarinus): 54.9%
mortality at 100 µg/mL ([3]; Tetranychus cinnabarinus): 75%
mortality at 0.3125 µg/mL ([4]; Tetranychus cinnabarinus, 48 h): 7.74%
mortality at 0.625 µg/mL ([4]; Tetranychus cinnabarinus, 48 h): 17.1%
mortality at 1.25 µg/mL ([4]; Tetranychus cinnabarinus, 48 h): 28.8%
mortality at 2.5 µg/mL ([4]; Tetranychus cinnabarinus, 48 h): 55.3%
mortality at 5 µg/mL ([4]; Tetranychus cinnabarinus, 48 h): 82.5%
